Consider six compounds from ChEMBL document CHEMBL4219032, “Triple Reuptake Inhibitors as Potential Therapeutics for Depression and Other Disorders: Design Paradigm and Developmental Challenges” (J Med Chem, 2018).

Data set [1] concerns the target T1, Sodium-dependent dopamine transporter (Homo sapiens, UniProt Q01959).
Description: Binding affinity to DAT (unknown origin)
Data set [2] concerns Homo sapiens. The data set can be described thus: Anti-obesity activity in human assessed as body weight loss at […], po administered for 6 months relative to control. It counts as functional.
Data set [3] has as its system Homo sapiens. The data set can be described thus: In vivo receptor occupancy at DAT in human brain at 0.125 to 0.5 mg, iv via bolus dosing measured at 3 hrs post dose by PET analysis. It is filed as functional.
Data set [4] concerns Homo sapiens. The data set can be described thus: Anti-obesity activity in human assessed as body weight loss at 1 mg/kg, po administered for 6 months relative to control. It is filed as functional.
Data set [5] concerns Homo sapiens. The experiment in a line: Anti-obesity activity in human assessed as body weight loss at 0.5 mg/kg, po administered for 6 months relative to control. It counts as functional.
In data set [6] the target is T2, Sodium-dependent serotonin transporter (Homo sapiens, UniProt P31645).
Description: Binding affinity to SERT (unknown origin)
Data set [7] deals with T3, Sodium-dependent noradrenaline transporter (Homo sapiens, UniProt P23975).
Description: Binding affinity to NET (unknown origin)
Data set [8] can be described thus: Tmax in human at 9 mg. It is filed as ADME, organism-based. The note with it: in vivo.
Data set [9] in a line: Ratio of drug uptake in Sprague-Dawley rat brain to plasma at 1 mg/kg, sc by HPLC analysis. It is filed as ADME, organism-based. The note with it: read-out: BPR.
Data set [10] relates to Rattus norvegicus. The data set can be described thus: In vivo receptor occupancy at NET in Sprague-Dawley rat at 0.1 mg/kg, sc measured at 1 to 8 hrs post dose. It counts as functional.
For data set [11], the system named is Rattus norvegicus. The data set can be described thus: In vivo receptor occupancy at SERT in Sprague-Dawley rat at 0.1 mg/kg, sc measured at 1 to 8 hrs post dose. It is filed as functional.
Data set [12] concerns Rattus norvegicus. The experiment in a line: In vivo receptor occupancy at DAT in Sprague-Dawley rat at 0.1 mg/kg, sc measured at 1 to 8 hrs post dose. It is filed as functional.
Data set [13] has as its target T3, Sodium-dependent noradrenaline transporter. The data set can be described thus: Inhibition of human NET expressed in CHO cells assessed as reduction of [3H]-NE re-uptake preincubated for 10 mins followed by [3H]-NE addition measured after 10 mins by liquid scintillation counting. It counts as cell-based.
Data set [14] deals with T2, Sodium-dependent serotonin transporter. The data set can be described thus: Inhibition of human SERT expressed in CHO cells assessed as reduction of [3H]-5-HT re-uptake preincubated for 10 mins followed by [3H]-5-HT addition measured after 10 mins by liquid scintillation counting. It counts as cell-based.
The target of data set [15] is T1, Sodium-dependent dopamine transporter. The data set can be described thus: Inhibition of human DAT expressed in CHO cells assessed as reduction of [3H]-DA re-uptake preincubated for 10 mins followed by [3H]-DA addition measured after 10 mins by liquid scintillation counting. It is filed as cell-based.
The nature of data set [16]: Tmax in human at 0.025 to 5 mg, po by LC-MS/MS analysis. Particulars: in vivo. It counts as ADME, organism-based.
In data set [17] the test system is Mus musculus. The experiment in a line: In vivo receptor occupancy at SERT in mouse at 0.3 mg/kg. It counts as functional.
Data set [18] concerns Homo sapiens. The data set can be described thus: In vivo receptor occupancy at SERT in human at 3 mg, po administered on day 1 measured on day 14 by [11C]-DASB -based PET imaging analysis. It counts as functional.
Data set [19] relates to Mus musculus. The experiment in a line: Antidepressant activity in TST mouse model assessed as reduction in immobility time at 0.3 mg/kg, po relative to control. It counts as functional.
Data set [20] can be described thus: Half life in human at 0.025 to 5 mg, po by LC-MS/MS analysis. Particulars: in vivo. It counts as ADME, organism-based.
The test system of data set [21] is Mus musculus. The experiment in a line: In vivo receptor occupancy at NET in mouse at 0.3 mg/kg. It counts as functional.
Data set [22] concerns Homo sapiens. The experiment in a line: In vivo receptor occupancy at SERT in human at 0.5 mg, po administered on day 1 measured on day 14 by [11C]-DASB -based PET imaging analysis. It counts as functional.
Data set [23] deals with Mus musculus. The data set can be described thus: In vivo receptor occupancy at DAT in mouse at 0.3 mg/kg. It counts as functional.
Data set [24] has as its system Homo sapiens. The data set can be described thus: In vivo receptor occupancy at DAT in human at 3 mg, po administered on day 1 measured on day 14 by […]-based PET imaging analysis. It counts as functional.
For data set [25], the system named is Rattus norvegicus. The experiment in a line: In vivo receptor occupancy at DAT in ip dosed rat brain measured 60 mins post dose. It is filed as functional. The note with it: 1 h.
For data set [26], the system named is Mus musculus. The data set can be described thus: Reversal of motor depression in po dosed mouse measured at 3rd, 6th and 23rd hr followed by second administration on 24th hr administered as 4 injections for 4 consecutive days measured from day 3 to 10 days post last dose. The note with it: read-out: MED. It is filed as functional.
Data set [27] concerns Rattus norvegicus. The experiment in a line: In vivo receptor occupancy at SERT in ip dosed rat brain measured 60 mins post dose. It counts as functional. Particulars: 1 h.
Data set [28] concerns Rattus norvegicus. The experiment in a line: In vivo receptor occupancy at NET in ip dosed rat brain measured 60 mins post dose. It counts as functional. Particulars: 1 h.
Data set [29] relates to Mus musculus. The data set can be described thus: Reversal of ptosis in po dosed mouse measured at 3rd, 6th and 23rd hr followed by second administration on 24th hr administered as 4 injections for 4 consecutive days measured from day 3 to 10 days post last dose. It counts as functional.
Data set [30] concerns the target T1, Sodium-dependent dopamine transporter. The experiment in a line: Inhibition of DAT (unknown origin) assessed as reduction of [3H]-DA re-uptake.

T1 sequence (Q01959 whole entry): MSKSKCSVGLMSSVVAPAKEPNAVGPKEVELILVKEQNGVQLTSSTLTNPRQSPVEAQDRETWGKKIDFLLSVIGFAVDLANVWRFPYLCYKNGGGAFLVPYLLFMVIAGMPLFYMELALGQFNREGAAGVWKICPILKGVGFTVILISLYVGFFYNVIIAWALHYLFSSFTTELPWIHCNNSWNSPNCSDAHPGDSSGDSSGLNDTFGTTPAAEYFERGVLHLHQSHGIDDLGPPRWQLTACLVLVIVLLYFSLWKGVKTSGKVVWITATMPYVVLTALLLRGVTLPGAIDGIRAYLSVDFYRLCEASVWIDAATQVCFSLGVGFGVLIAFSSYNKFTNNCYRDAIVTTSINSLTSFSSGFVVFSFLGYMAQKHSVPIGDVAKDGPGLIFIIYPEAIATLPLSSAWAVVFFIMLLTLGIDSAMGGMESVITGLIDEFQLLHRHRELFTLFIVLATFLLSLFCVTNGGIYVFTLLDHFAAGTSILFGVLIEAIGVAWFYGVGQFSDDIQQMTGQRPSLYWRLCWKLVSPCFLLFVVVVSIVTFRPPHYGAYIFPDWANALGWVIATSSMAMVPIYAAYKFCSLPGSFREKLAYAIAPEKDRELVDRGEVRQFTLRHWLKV
T2 sequence (P31645 whole entry): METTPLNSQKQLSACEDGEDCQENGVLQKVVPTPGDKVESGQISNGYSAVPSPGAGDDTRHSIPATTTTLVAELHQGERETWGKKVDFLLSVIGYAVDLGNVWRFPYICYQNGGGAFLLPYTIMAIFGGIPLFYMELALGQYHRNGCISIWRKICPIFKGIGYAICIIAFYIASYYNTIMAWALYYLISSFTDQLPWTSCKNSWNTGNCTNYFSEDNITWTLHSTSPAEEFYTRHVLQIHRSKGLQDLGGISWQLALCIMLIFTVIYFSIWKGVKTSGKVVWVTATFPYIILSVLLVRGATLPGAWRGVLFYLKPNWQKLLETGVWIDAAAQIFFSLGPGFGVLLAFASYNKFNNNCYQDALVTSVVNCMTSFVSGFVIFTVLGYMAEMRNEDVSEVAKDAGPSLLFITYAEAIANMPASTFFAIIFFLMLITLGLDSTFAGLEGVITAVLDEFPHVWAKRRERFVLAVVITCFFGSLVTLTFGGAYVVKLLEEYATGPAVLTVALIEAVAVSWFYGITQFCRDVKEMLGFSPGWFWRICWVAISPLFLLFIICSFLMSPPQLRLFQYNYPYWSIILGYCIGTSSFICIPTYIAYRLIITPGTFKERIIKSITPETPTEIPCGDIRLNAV
T3 sequence (P23975 whole entry): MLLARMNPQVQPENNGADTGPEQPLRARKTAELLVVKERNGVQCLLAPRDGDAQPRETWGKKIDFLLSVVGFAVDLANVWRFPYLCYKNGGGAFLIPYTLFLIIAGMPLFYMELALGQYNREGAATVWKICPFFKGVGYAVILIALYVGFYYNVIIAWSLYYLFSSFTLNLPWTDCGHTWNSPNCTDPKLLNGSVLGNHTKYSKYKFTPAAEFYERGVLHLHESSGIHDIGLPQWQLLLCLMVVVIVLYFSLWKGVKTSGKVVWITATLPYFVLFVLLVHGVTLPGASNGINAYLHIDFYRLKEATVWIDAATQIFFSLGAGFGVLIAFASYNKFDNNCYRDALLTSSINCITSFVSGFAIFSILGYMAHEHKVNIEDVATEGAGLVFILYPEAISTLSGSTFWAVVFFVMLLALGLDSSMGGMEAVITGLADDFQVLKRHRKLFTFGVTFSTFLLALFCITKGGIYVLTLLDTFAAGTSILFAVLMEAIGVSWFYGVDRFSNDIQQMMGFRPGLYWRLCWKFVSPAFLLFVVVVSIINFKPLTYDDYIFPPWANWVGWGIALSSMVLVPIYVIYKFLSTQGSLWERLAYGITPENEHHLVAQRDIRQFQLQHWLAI

For orientation: IC50 means the concentration at which inhibition is half-maximal. For orientation: Tmax means the time at which the peak concentration occurs. `CCOC[C@H]1[C@@H](c2ccc(Cl)c(Cl)c2)C[C@@H]2CC[C@H]1N2C`: the IC50 stood at 8 nM in data set [1], 11 nM in data set [6] and 3.2 nM in data set [7]. The Activity in the data set on Homo sapiens [2] stood at 4.5%; in the data set on Homo sapiens [4], 10.6%; with Homo sapiens [5], 9.2%. Further, the Occ in the data set with Homo sapiens [3] is on record as 18 - 77%. Besides, the Tmax in [8] amounted to 6 h.
For orientation: Ki means a dissociation constant, usually derived from enzyme kinetics or from competition with a known ligand. The low end stands for higher affinity, the high end for lower affinity. For the compound `C#Cc1ccc(C2CN3CCCC3c3ccccc32)cc1` (racemic), the Ki came to 5.2 nM in [1], 0.9 nM in [6] and 16.6 nM in [7]. The Kp in data set [9] amounted to 7.5. Moreover, the Occ worked out at 95% in the data set with Rattus norvegicus [10], 94% in the data set with Rattus norvegicus [11] and 50% with Rattus norvegicus [12].
`CN(C)CC(c1ccc(OC(=O)c2ccccc2)cc1)C1(O)CCCCC1` (stereo not given): the IC50 was determined as 644 nM in [13], 105 nM in data set [14] and 813 nM in data set [15].
The term inhibition in vivo denotes the percentage by which the read-out fell short of the control. By half-life is commonly meant the time needed for the level to fall by half in the phase considered. As to `CN1Cc2cc(-c3ccc(N)nn3)ccc2[C@H](c2ccc3ccccc3c2)C1` [LIAFENSINE], in [16], the Tmax lay in the range of 5 to 7.2 h. In addition, the Occ in the data set on Mus musculus [17] turned out to be 86%; with Homo sapiens [18] it was 82%; in the data set on Mus musculus [21] it was 76%; in the data set with Homo sapiens [22], 19%; with Mus musculus [23], 28%; with Homo sapiens [24] it was 19%. In addition, the inhibition in vivo at 0.3 mg/kg with Mus musculus [19] turned out to be 77%. This compound yielded a half-life in data set [20] of 34 to 57 h. Besides, the IC50 in data set [6] came out at 1.1 nM; in data set [7], 8.8 nM.
By ED50 is commonly meant the dose at which the effect has come halfway, by size or by number of responders. For `Clc1ccc([C@]23CNC[C@H]2C3)cc1Cl` [AMITIFADINE], the ED50 amounted to 95 mg/kg in the data set with Rattus norvegicus [25], 3 mg/kg with Rattus norvegicus [27], 19 mg/kg in the data set on Rattus norvegicus [28] and 2.2 mg/kg in the data set on Mus musculus [29]. The minimal effective dose in the data set with Mus musculus [26] is 1.6 mg/kg.
`CNC[C@H]1C2CCC(C2)[C@@H]1c1ccc2ccccc2c1` (stereo not given in full): the IC50 in data set [30] was 96 nM.
